Assay results as given in patent US12534429B2, “Heterodimers of glutamic acid” (Molecular Insight Pharmaceuticals, Inc., priority 2006, dated 2026).

Columns and labels:
LnCap cells = experiment: Rate of uptake and internalization (acid wash assay) of MIP-1072 in LNCaP cells; assay type: cell-based, human; details: 100 nM; for internalization in LNCaP cells: 4° C. and 37° C.
Procedure: In order to confirm the results of the Scatchard analysis of FIG. 7 indicating MIP-1072 internalization into LNCaP cells, the rate of uptake of MIP-1072 in LNCaP cells was monitored. Each well was dosed with 100 nM MIP-1072 (2 uCi/well) at 4° C. and 37° C. Binding to PSMA reached equilibrium after 15 min as evidenced by the plateau in the curve at 4° C. The cells incubated at 37° C. continued to internalize MIP-1072 after equilibrium had been reached.
The ability of MIP-1072 to internalize in LNCaP cells was confirmed by an acid wash assay (FIG. 19). LNCaP cells were incubated in HBS with 100 nM ^123I-MIP-1072 for 0-2 hours at 4 and 37° C. At the indicated time the media was removed and the cells were incubated in mild acid buffer (50 mM glycine, 150 mM NaCl, pH 3.0) at 4° C. for 5 minutes. After the brief incubation the cells were centrifuged at 20,000×g for 5 minutes. The supernatant and cell pellet were counted in a gamma counter. In order to confirm the results of the saturation binding analysis indicating MIP-1072 internalization into LNCaP cells, we monitored the rate of uptake of MIP-1072 in LNCaP cells. Each well was dosed with 100 nM MIP-1072 (2 uCi/well) at 4° C. and 37° C. Binding to PSMA reached equilibrium after 15 min as evidenced by the plateau in the curve at 4° C. The cells incubated at 37° C. continued to internalize MIP-1072 after equilibrium had been reached. […] (FIG. 19).

[1] = system: PSMA positive LNCaP xenografts; assay type: in vivo, male NCr Nude mice
Procedure: Tissue biodistribution of I^23I-MIP-1072 (2 μCi/mouse, >1,000 mCi/μmole) was assessed in selected tissues from LNCaP (PSMA positive) tumor bearing nude mice. Results are expressed as the percent of the injected dose per gram of the selected tissues (% ID/g).
(§1) FIG. 21 Uptake of ^23I-MIP-1072 in LNCaP and PC3 xenograft bearing mice.
(§2) A quantitative analysis of the tissue distribution of ^123I-MIP-1072 was performed in separate groups of male NCr Nude^−/− mice bearing PSMA positive LNCaP xenografts (approximately 100-200 mm^3) administered via the tail vein as a bolus injection (approximately 2 μCi/mouse) in a constant volume of 0.05 ml. The animals (n=5/time point) were euthanized by asphyxiation with carbon dioxide at 0.25, 1, 2, 4, 8, and 24 hours post injection. Tissues (blood, heart, lungs, liver, spleen, kidneys, adrenals, stomach, large and small intestines (with contents), testes, skeletal muscle, bone, brain, adipose, and tumor) were dissected, excised, weighed wet, transferred to plastic tubes and counted in an automated γ-counter (LKB Model 1282, Wallac Oy, Finland). […] MIP-1072, uptake and exposure was greatest in the kidney and LNCaP xenograft which express high levels of PSMA. Peak uptake in the kidney was 158±46% ID/g at 2 hours and the LNCaP xenograft was 17±6% ID/g at 1 hours (FIG. 20).

[2] = system: PC3 tumors which do not express PSMA; experiment: Tumor uptake of 123I-MIP-1072 in PC3 xenograft bearing mice; assay type: in vivo, male NCr Nude mice; details: 1 hour post injection
Procedure: as §1, §2

[3] = Microsome assay (stability in rat liver microsomes); assay type: in vitro ADME; details: 37° C., 60 min incubation; MIP-1072 50 μM, phenacetin 100 μM
Procedure: Pooled male rat liver microsomes (1 mg/mL, BD Biosciences), NADPH regenerating system (1.3 mM NADP, 3.3 mM glucose 6-phosphate and 0.4 U/mL glucose 6-phosphate dehydrogenase, BD Biosciences) and test compound (50 μM MIP-1072, 50 μM DCT, and 100 μM phenacetin) were added to 0.1 M potassium phosphate buffer (pH 7.4) in order to monitor the catastrophic degradation of the test compounds. The mixture was incubated at 37° C. and at the indicated time (0, 15, 60 min) the reaction was stopped by the addition of an equal volume of ice cold methanol (500 μL). The resulting slurry was then centrifuged at 21,000×G for 10 min and the supernatant was collected and injected onto an Agilent LCMS model MSD SL using a 95:5 water:acetonitrile (with 0.1% formic acid) to 40:60 water:acetonitrile (with 0.1% formic acid) gradient and monitoring for the parent ion only in single ion mode. The results, shown in FIGS. 11A and 11B, are expressed as degradation of the parent ion with respect to the 0 min time point.
The stability of MIP-1072 was assessed using rat liver microsomes. MIP-1072 (50 μM) and Phenacetin (100 μM) were incubated with rat liver microsomes at 37° C. for the indicated time. Phenacetin was used as a control substance that is known to be metabolized. MIP-1072 was not degraded by the rat liver microsomes during the incubation period. […]

PSMA on LNCaP cells [4] = target: T1, PSMA on LNCaP cells (Homo sapiens, UniProt Q04609); experiment: In vitro cell binding: competition with I-131 DCIT for binding to PSMA on LNCaP cells; details: LnCap cells, dose curves; read-out: IC50 values versus I-131 DCIT
T1 construct: LNCaP human prostate cancer cells were obtained from American Type Culture Collection; host or cells: LNCaP human prostate cancer cells
T1 sequence (Q04609 whole entry): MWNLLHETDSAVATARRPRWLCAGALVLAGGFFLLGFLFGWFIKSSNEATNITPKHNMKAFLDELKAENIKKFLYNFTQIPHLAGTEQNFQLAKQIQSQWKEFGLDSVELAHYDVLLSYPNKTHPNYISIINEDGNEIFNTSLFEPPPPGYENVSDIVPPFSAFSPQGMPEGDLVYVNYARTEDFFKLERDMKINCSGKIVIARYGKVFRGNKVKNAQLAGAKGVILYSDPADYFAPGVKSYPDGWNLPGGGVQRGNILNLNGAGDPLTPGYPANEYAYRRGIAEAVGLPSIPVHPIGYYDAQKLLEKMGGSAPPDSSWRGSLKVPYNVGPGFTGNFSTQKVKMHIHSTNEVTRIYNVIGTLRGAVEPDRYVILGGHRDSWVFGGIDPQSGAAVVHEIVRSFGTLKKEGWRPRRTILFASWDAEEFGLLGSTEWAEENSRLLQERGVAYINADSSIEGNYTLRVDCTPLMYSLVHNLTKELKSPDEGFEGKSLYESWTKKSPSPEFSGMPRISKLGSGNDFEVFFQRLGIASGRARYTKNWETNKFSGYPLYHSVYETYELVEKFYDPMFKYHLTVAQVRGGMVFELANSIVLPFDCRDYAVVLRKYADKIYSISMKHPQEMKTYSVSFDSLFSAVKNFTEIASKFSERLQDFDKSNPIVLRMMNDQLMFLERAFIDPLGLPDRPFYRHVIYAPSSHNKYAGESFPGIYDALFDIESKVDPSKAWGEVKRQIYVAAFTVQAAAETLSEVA
Procedure: In vitro cold screening assays verses I-131 DCIT. LNCaP and PC3 human prostate cancer cells were obtained from American Type Culture Collection, Rockville, MD LNCaP cells were maintained in RPMI-1640 medium supplemented with 10% fetal bovine serum (FBS). PC3 cells were grown in F12K medium supplemented with 10% FBS. Binding of the radiolabeled compound and competition with cold derivatives to LNCaP and PC-3 cells was performed according to the methods of Tang et al. (Tang, H.; Brown, M.; Ye, Y.; Huang, G.; Zhang, Y.; Wang, Y.; Zhai, H.; Chen, X.; Shen, T. Y.; Tenniswood, M., Prostate targeting ligands based on N-acetylated alpha-linked acidic dipeptidase, Biochem. Biophys. Res. Commun. 2003, 307, 8-14) with appropriate modifications. Cells were plated in 12-well plates at approximately 4×10^5 cells/well and incubated for 48 hours in a humidified incubator at 37° C./5% carbon dioxide prior to addition of compound. Each unique SAAC-urea-Glu conjugate was prepared and diluted in serum-free cell culture medium containing 0.5% bovine serum albumin (BSA) in combination with 3 nM I-131 DCIT (known inhibitor). Total binding was determined by incubating I-131 DCIT without test compound. Plates were incubated at room temperature for 1 hour. Cells were removed from the plates by gently pipeting and transferred to eppendorff tubes. Samples were microcentrifuged for 15 seconds at 10K×g. The medium was aspirated and the pellet was washed twice by dispersal in fresh assay medium followed by microcentrifugation. Cell binding of I-131 DCIT was determined by counting the cell pellet in an automated gamma counter. […] The control compounds are depicted below.
The ability of non-radioactive analogs to compete with ^131I-DCIT for binding to PSMA was tested in the PSMA positive human prostate cancer cell line, LNCaP cells. LNCaP cells (300,000 cells/well) were incubated for 1 hour with 3 nM [^131I]-DCIT in the presence of 1-10,000 nM MIP-1072 in RPMI-1640 medium supplemented with 0.5% bovine serum albumin, then washed and counted in a gamma counter. All documents cited in this specification including patent applications are incorporated by reference in their entirety.

PSMA on LNCaP cells [5] = target: T1, PSMA on LNCaP cells; experiment: Saturation binding analysis of radiolabeled MIP-1072 in LNCaP cells
Procedure: The affinity constant (Kd) of MIP-1072 was determined by saturation binding analysis (FIG. 18). LNCaP cells were incubated for 1 hour with 30-100,000 pM ^131I-MIP-1072 in HBS (50 mM Hepes, pH 7.5, 0.9% sodium chloride) at either 4° C. or 37° C. in the absence or presence of 10 μM unlabeled MIP-1072 (to determine non-specific binding). Cells were then washed and the amount of radioactivity was measured on a gamma counter. Specific binding was calculated as the difference between total binding and nonspecific binding. […] The Bmax, however, was greater at 37° C. than at 4° C.; […] fmol/10^6 cells, respectively, indicating internalization of MIP-1072. The results below are representative of two independent analyses.

[6] = system: LNCaP (PSMA positive) tumors; experiment: Tissue biodistribution of I-131 MIP 1072 in xenograft tumored mice, LNCaP tumors; assay type: in vivo; details: I-131-labeled
Description: (§3) The lead compound, MIP 1072, was I-131-labeled for tissue distribution studies in mice with both LNCaP (PSMA positive) and PC3 (PSMA negative) tumors implanted. The compound was radiolabeled by the route shown below.
(§4) A graph depicting the mice distribution is shown below (FIG. 12).

[7] = system: PC3 (PSMA negative) tumors; experiment: Tissue biodistribution of I-131 MIP 1072 in xenograft tumored mice, PC3 tumors; assay type: in vivo; details: I-131-labeled
Description: as §3, §4

SMILES | internalization in LNCaP cells (LnCap cells) | tumor and kidney uptake after pretreatment with PMPA ([1]; 50 mg/kg PMPA 5 minutes prior to injection, 1 hour post injection) | localization to PSMA expressing LNCaP tumors ([1]; 1 hour post injection) | peak uptake in the LNCaP xenograft ([1]; at 1 hours post injection, tail vein bolus) [% ID/g] | localization to PC3 tumors [2] | degradation of the parent by rat liver microsomes [3] | IC50 (PSMA on LNCaP cells [4]) [nM] | Bmax (PSMA on LNCaP cells [5]; 4° C.) | Kd (PSMA on LNCaP cells [5]; 4° C., nonlinear regression) [nM] | Bmax (PSMA on LNCaP cells [5]; 37° C.) | Kd (PSMA on LNCaP cells [5]; 37° C.) [nM] | time at which binding to PSMA reached equilibrium (LnCap cells; 4° C., LNCaP cells) [min] | uptake in LNCaP (PSMA positive) tumors [6] | activity in PC3 (PSMA negative) tumors [7]
O=C(O)CC[C@H](NC(=O)N[C@@H](CCCCNCc1ccc([123I])cc1)C(=O)O)C(=O)O [123I-MIP-1072] | internalized at 37 °C but not at 4 °C | blocked | localization to PSMA expressing LNCaP tumors | 17±6 | not PC3 tumors |  |  |  |  |  |  |  |  | 
CCOc1ccc(NC(C)=O)cc1 [phenacetin, reference compound] |  |  |  |  |  | 22% |  |  |  |  |  |  |  | 
O=C(O)CC[C@H](NC(=O)N[C@@H](CCCCNCc1ccc(I)cc1)C(=O)O)C(=O)O [MIP 1072, (S, S)-2-{3-[1-Carboxy-5-(4-iodo-benzylamino)-pentyl]-ureido}-pentanedioic] | internalized |  |  |  |  | not degraded | < 50 | 1,490 fmoles/10^6 cells | 4.8 | 4,400 fmol/10^6 cells | 8.1 | 15 | significant uptake | very little activity
